Test systems include K-562 leukemia; HOP-92 NSCLC; CAKI-1 renal; SF-295 CNS; NCI-H460 lung; SK-MEL-5 melanoma; HCT-15 colon; U251 CNS; OVCAR-5 ovarian; CCRF-CEM leukemia.
Assay in all cases: NCI tumour cell line growth inhibition, 48 h

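48-hour exposure; five concentrations; linearly interpolated endpoints. At the GI50, growth is halved. Definition used: TGI = concentration required for complete inhibition of growth.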

Turning to `CC(=O)C(=Cc1ccc(C=C(C(C)=O)C(C)=O)cc1)C(C)=O`, the TGI is 6.12 µM with K-562 leukemia; 5.87 µM in the test with HOP-92 NSCLC; 4.75 µM in the test on CAKI-1 renal; 7.97 µM in the test with SF-295 CNS; 7.38 µM in the test on NCI-H460 lung; 3.36 µM in the test on SK-MEL-5 melanoma. In addition, the values for the TGI with HCT-15 colon, in the test on U251 CNS and in the test with OVCAR-5 ovarian were 3.44 µM, 4.24 µM and 5.88 µM, respectively.

In the case of `CN1CCN(CCOc2ccc(-c3cnc4c(-c5ccc(C(F)(F)F)cc5)cnn4c3)cc2)CC1`, the GI50 in the test on HOP-92 NSCLC was 1.07 µM; with CAKI-1 renal it was 1.42 µM; in the test on SF-295 CNS, 1.75 µM; in the test with NCI-H460 lung it was 1.16 µM; with SK-MEL-5 melanoma it was 1.63 µM; in the test with HCT-15 colon it was 1.02 µM. Further, the GI50 in the test on U251 CNS is 1.3 µM; with OVCAR-5 ovarian, 1.59 µM. Moreover, the TGI turned out to be 2.33 µM in the test on HOP-92 NSCLC; 2.72 µM with CAKI-1 renal; 3.31 µM in the test on SF-295 CNS; 2.44 µM with NCI-H460 lung; 3.03 µM in the test on SK-MEL-5 melanoma; 2.31 µM in the test on HCT-15 colon. The figures for the TGI in the test with U251 CNS and in the test on OVCAR-5 ovarian were 2.67 µM and 2.96 µM, respectively.

Regarding `O=c1oc(Cl)c(Cl)c2ccccc12`, the GI50 in the test on K-562 leukemia was 27.2 µM; in the test on HOP-92 NSCLC, 3.25 µM; in the test on CAKI-1 renal, 21.5 µM; with SF-295 CNS, 39.4 µM; in the test on NCI-H460 lung it was 55.5 µM; in the test with SK-MEL-5 melanoma it was 16.5 µM. The GI50 in the test with HCT-15 colon was 23.1 µM; in the test on U251 CNS, 21.2 µM; in the test with OVCAR-5 ovarian, 18.7 µM. For the same compound, the TGI was 70.5 µM in the test with K-562 leukemia; 27.9 µM in the test with HOP-92 NSCLC; 39.6 µM with CAKI-1 renal; > 100 µM in the test with SF-295 CNS; > 100 µM in the test on NCI-H460 lung; 37 µM in the test with SK-MEL-5 melanoma. For the same compound, the TGI in the test on HCT-15 colon came to 61.3 µM; in the test with U251 CNS it was 52.1 µM; in the test on OVCAR-5 ovarian it was 57.1 µM.

`COc1ccc(-c2nc(/C=N/Nc3cc(C)nc4ccc(Cl)cc34)c(C)o2)cc1`: the GI50 was 1.5 µM in the test on HOP-92 NSCLC; 1.63 µM in the test on CAKI-1 renal; 1.82 µM with SF-295 CNS; 1.85 µM in the test on NCI-H460 lung; 1.77 µM in the test with SK-MEL-5 melanoma; 1.52 µM with HCT-15 colon. The GI50 is 1.78 µM with U251 CNS and 1.68 µM in the test with OVCAR-5 ovarian. Further, the TGI in the test with HOP-92 NSCLC came to 2.98 µM; in the test on CAKI-1 renal, 2.98 µM; with SF-295 CNS, 3.31 µM; in the test with NCI-H460 lung, 3.49 µM; with SK-MEL-5 melanoma, 3.17 µM; in the test on HCT-15 colon, 3.06 µM. The TGI with U251 CNS was 3.28 µM; in the test on OVCAR-5 ovarian it was 3.07 µM.

As for `Cc1cc(C(=C2C=CC(=Nc3ccccc3)C=C2)c2ccc(Nc3ccccc3)cc2)ccc1N`, the GI50 was 0.475 µM in the test on HOP-92 NSCLC; 0.385 µM with SF-295 CNS; 0.223 µM in the test on NCI-H460 lung; 0.253 µM in the test with SK-MEL-5 melanoma; 0.352 µM in the test with CCRF-CEM leukemia; 0.185 µM in the test with U251 CNS. Also, the GI50 with OVCAR-5 ovarian is 0.245 µM. Also, the TGI with HOP-92 NSCLC was 1.73 µM; with SF-295 CNS, 1.35 µM; in the test with NCI-H460 lung, 0.532 µM; with SK-MEL-5 melanoma, 0.718 µM; in the test with CCRF-CEM leukemia it was > 100 µM; in the test on U251 CNS, 0.39 µM. In the test on OVCAR-5 ovarian, this compound returned a TGI of 0.671 µM.

For `O=C(O/C(=C(/N=Nc1ccccc1)c1ccccc1)c1ccccc1)c1ccccc1`, the TGI in the test on K-562 leukemia, in the test with HOP-92 NSCLC, in the test on CAKI-1 renal, with SF-295 CNS, in the test on NCI-H460 lung and in the test with SK-MEL-5 melanoma was > 100 µM throughout. The TGI with HCT-15 colon, with U251 CNS and in the test with OVCAR-5 ovarian was > 100 µM throughout.

Turning to `CCn1cc(C(=O)N/N=C/c2ccccc2)c(=O)c2cc(F)c(N3CCNC(C)C3)c(F)c21` (stereo unspecified), the GI50 in the test on HOP-92 NSCLC is 1.19 µM; in the test with CAKI-1 renal, 1.75 µM; in the test on SF-295 CNS it was 1.83 µM; in the test on SK-MEL-5 melanoma, 1.76 µM; in the test on HCT-15 colon it was 1.45 µM; with OVCAR-5 ovarian, 1.64 µM. The TGI in the test with HOP-92 NSCLC was 2.46 µM; in the test on CAKI-1 renal it was 3.14 µM; with SF-295 CNS it was 3.35 µM; with SK-MEL-5 melanoma, 3.14 µM; with HCT-15 colon, 2.82 µM; with OVCAR-5 ovarian, 3.05 µM.

With `COC(=O)[C@@]12OC[C@]34[C@H]([C@@H](O)[C@@H]1O)[C@@]1(C)[C@H](O)C(=O)C=C(C)[C@@H]1C[C@H]3OC(=O)C(OC(C)=O)[C@@H]24` (stereo partly specified), the GI50 in the test on K-562 leukemia was 0.0314 µM; in the test with HOP-92 NSCLC, 0.0364 µM; in the test with CAKI-1 renal it was 0.107 µM; with SF-295 CNS, 0.0241 µM; with NCI-H460 lung it was 0.0183 µM; with SK-MEL-5 melanoma it was 0.0162 µM. Moreover, the figures for the GI50 with HCT-15 colon, in the test on U251 CNS and in the test on OVCAR-5 ovarian were 0.101 µM, 0.0207 µM and 0.069 µM, respectively. Besides, the TGI in the test with HOP-92 NSCLC was 0.309 µM; with CAKI-1 renal, 0.394 µM; with SF-295 CNS it was 0.0847 µM; in the test on NCI-H460 lung it was 0.0524 µM; with SK-MEL-5 melanoma it was 0.0406 µM; with HCT-15 colon, 0.458 µM. Further, the TGI in the test with U251 CNS was found to be 0.0443 µM; in the test with OVCAR-5 ovarian it was 0.41 µM.

The values above are taken from PubChem BioAssay (NCI).
